This note sets out measurements from paper PMC4960534, “Ligand binding to an Allergenic Lipid Transfer Protein Enhances Conformational Flexibility resulting in an Increase in Susceptibility to Gastroduodenal Proteolysis” (Scientific Reports, 2016).

Read-outs that look alike come from different tables or passages of the source.

Experiment [1] has as its target T1, peach LTP (Prunus persica, UniProt P81402, A9S/H76S).
T1 construct: Peach LTP was purified from the skin of peach fruits; from tissue; host or cells: skin of peach fruits
Put plainly: CPA displacement assay (competitive, CPA as tracer). It counts as binding. As to conditions: for ΔG Peach: ΔG = -RTln(Ki). The protocol:
(§1) Ligand binding was assessed using a fluorescence assay based on cis-parinaric acid originally described by Cooper et al.[22]. Fluorescence intensity was measured at 25 °C with a LS55 Luminescence Spectrometer (Perkin Elmer, Cambridge, UK) using a […] slit width for both excitation (λ = 320 nm) and emission (λ = 420 nm) and the measurement taken for no longer than 1.5–2s. CPA (3 mM in ethanol) was titrated by 1 μL injections into 1 mL of LTP solutions (5 μM in 50 mM phosphate buffer pH 7.5) in a stepwise manner. Binding curves were fitted with GraphPad Prism using the rectangular hyperbolic function of Hill’s equation. For non-fluorescent ligands, a competitive assay was developed using CPA as a tracer ligand. CPA concentrations close to the calculated Kd of each LTP[49][50] (at either 1 or 0.5 μM CPA for peach LTP and 2 or 1 μM CPA for wheat LTP in 50 mM phosphate buffer pH 7.5 or pH 2.5, 150 mM NaCl, respectively) were used. After equilibrating for 2–3 min with gentle mixing, the competing non-fluorescent ligands (1 mM of palmitic acid, 16-OH palmitic acid, 12-OH stearic acid, linoleic acid or 1-palmitoyl–sn–glycerol–3–phosphatadyl choline (PC) ethanol) were titrated into the LTP solution in 1 μL aliquots. The resulting data were fitted using a sigmoidal curve-fitting logarithm in GraphPad Prism from which the concentration able to displace 50% of the CPA (IC50) was calculated. Ki values were calculated according to Cheng-Prusoff equation[51].

Experiment [2] addresses T2, wheat LTP (Triticum aestivum, UniProt P24296).
T2 construct: Intact protein (residues 1–90); from tissue; host or cells: wheat bran
T2 sequence (P24296 24-113): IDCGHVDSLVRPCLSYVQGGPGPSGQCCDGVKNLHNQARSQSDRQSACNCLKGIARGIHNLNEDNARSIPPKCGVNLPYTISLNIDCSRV
The experiment is described as above. As to conditions: for Ki: Cheng-Prusoff; for ΔG Wheat: ΔG = -RTln(Ki). The class given is binding. How it is done:
as §1

Experiment [3] deals with T3, peach LTP (Prunus persica, UniProt P81402).
T3 construct: Peach LTP was purified from the skin of peach fruits; from tissue; host or cells: skin of peach fruits
T3 sequence (P81402 1-91): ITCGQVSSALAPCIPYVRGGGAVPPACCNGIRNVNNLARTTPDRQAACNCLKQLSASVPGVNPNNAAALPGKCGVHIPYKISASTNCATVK
Put plainly: CPA fluorescence titration, direct binding. How it is done: as §1

Experiment [4] has as its target T4, wheat LTP (Triticum aestivum, UniProt P24296).
T4 construct: Intact protein (residues 1–90); from tissue; host or cells: wheat bran
T4 sequence (P24296 24-90 limits assumed): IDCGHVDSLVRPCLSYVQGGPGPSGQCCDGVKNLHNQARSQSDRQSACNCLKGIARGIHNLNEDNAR
Put plainly: CPA fluorescence titration, direct binding. How it is done: as §1

[5] abbreviates: 50 mM phosphate, pH 7.5, Cheng-Prusoff, read-out: Ki Peach.
[6] abbreviates: 50 mM phosphate, pH 7.5, displacement of 1 μM CPA, read-out: IC50 Peach.
[7] abbreviates: 150 mM NaCl, pH 2.5, Cheng-Prusoff, read-out: Ki Peach.
[8] abbreviates: 150 mM NaCl, pH 2.5, displacement of 0.5 μM CPA, read-out: IC50 Peach.
Setting [9] is: 50 mM phosphate, pH 7.5, displacement of 2 μM CPA.
Setting [10] is: 150 mM NaCl, pH 2.5, displacement of 1 μM CPA.

T1 sequence (P81402 whole entry A9S/H76S): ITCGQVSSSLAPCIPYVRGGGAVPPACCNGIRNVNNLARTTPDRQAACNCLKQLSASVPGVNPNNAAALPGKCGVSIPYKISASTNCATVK

By Ki is commonly meant the equilibrium dissociation constant of an inhibitor or competing ligand from its target. A word on the IC50: it is the concentration that inhibits the measured activity by half. For the compound `CCCCCCCCCCCCCCCC(=O)OC[C@@H](O)COP(=O)([O-])OCC[N+](C)(C)C` [Phosphatidyl choline (vesicular), 1-palmitoyl–sn–glycerol–3–phosphatadyl choline], the Ki came to 700 ± 40 nM on peach LTP [1] (setting [5]); 800 ± 100 nM on peach LTP [1] (setting [7]); 3.9 ± 0.1 µM at wheat LTP [2] (50 mM phosphate, pH 7.5); 3.6 ± 0.1 µM on wheat LTP [2] (150 mM NaCl, pH 2.5). In addition, the IC50 at peach LTP [1] (setting [6]) is 1500 ± 100 nM; at peach LTP [1] (setting [8]), 1500 ± 100 nM; on wheat LTP [2] (setting [9]), 5.6 ± 0.1 µM; at wheat LTP [2] (setting [10]), 6.8 ± 0.2 µM. Moreover, the “ΔG Peach” value was determined as 8.35 kcal/mol on peach LTP [1] (50 mM phosphate, pH 7.5) and 8.29 kcal/mol at peach LTP [1] (150 mM NaCl, pH 2.5). Further, the “ΔG Wheat” value on wheat LTP [2] (50 mM phosphate, pH 7.5) was 7.37 kcal/mol; at wheat LTP [2] (150 mM NaCl, pH 2.5), 7.41 kcal/mol.

As a reminder, the Kd is the concentration at which binding is half-saturated. Lower therefore signals higher affinity. Consider `CC\C=C/C=C/C=C/C=C\CCCCCCCC(=O)O` [CPA, cis-parinaric acid], for which the Kd was 1000 ± 20 nM on peach LTP [3] (50 mM phosphate, pH 7.5); 600 ± 100 nM at peach LTP [3] (150 mM NaCl, pH 2.5); 4500 ± 200 nM at wheat LTP [4] (50 mM phosphate, pH 7.5); 1200 ± 100 nM at wheat LTP [4] (150 mM NaCl, pH 2.5).

As for `CCCCC/C=C\C/C=C\CCCCCCCC(=O)O` [Linoleic acid, linoleic acid], on peach LTP [1], the IC50 was 1600 ± 100 nM and the affinity, expressed as Ki, was 800 ± 40 nM. In addition, on peach LTP [1] (50 mM phosphate, pH 7.5), the “ΔG Peach” value came to 8.29 kcal/mol. Moreover, on wheat LTP [2] (50 mM phosphate, pH 7.5), the Ki was 5.3 ± 0.02 µM and the “ΔG Wheat” value amounted to 7.19 kcal/mol. The IC50 at wheat LTP [2] (setting [9]) was 7.6 ± 0.03 µM.

As to `CCCCCCCCCCCCCCCC(=O)O` [Palmitic acid, palmitic acid], the values for the IC50 at peach LTP [1] and on wheat LTP [2] (setting [9]) were 1400 ± 100 nM and 5.2 ± 0.1 µM, respectively. The Ki at peach LTP [1] stood at 700 ± 30 nM; on wheat LTP [2] (50 mM phosphate, pH 7.5), 3.6 ± 0.1 µM. For the same compound, the “ΔG Peach” value at peach LTP [1] (50 mM phosphate, pH 7.5) amounted to 8.39 kcal/mol. In addition, the “ΔG Wheat” value at wheat LTP [2] (50 mM phosphate, pH 7.5) amounted to 7.41 kcal/mol.

Regarding “1-palmitoyl–sn–glycerol–3–phosphatadyl choline [Phosphatidyl choline]”, the Ki on peach LTP [1] (setting [5]) was determined as 1100 ± 20 nM; on peach LTP [1] (setting [7]), 1000 ± 100 nM; at wheat LTP [2] (50 mM phosphate, pH 7.5) it was 4.6 ± 0.1 µM; on wheat LTP [2] (150 mM NaCl, pH 2.5) it was 2.8 ± 0.1 µM. Besides, the IC50 on peach LTP [1] (setting [6]) was 2200 ± 30 nM; on peach LTP [1] (setting [8]), 1800 ± 100 nM; at wheat LTP [2] (setting [9]), 6.7 ± 0.1 µM; at wheat LTP [2] (setting [10]), 5.3 ± 0.1 µM. Also, the “ΔG Peach” value is 8.13 kcal/mol on peach LTP [1] (50 mM phosphate, pH 7.5) and 8.17 kcal/mol at peach LTP [1] (150 mM NaCl, pH 2.5). Further, the “ΔG Wheat” value at wheat LTP [2] (50 mM phosphate, pH 7.5) worked out at 7.27 kcal/mol; at wheat LTP [2] (150 mM NaCl, pH 2.5) it was 7.55 kcal/mol.
